Results: PubChem BioAssay AID330 (DTP/NCI, 2004)
Values joined by “and” are separate entries in the source; they are usually repeats but may differ in a detail not shown here. Equal entries are not always repeated. Toxic doses and inconclusive results are not listed. Rule for the calls: active = survival T/C of 150% or more; inactive = T/C below 125% in these data.

System: P388 leukemia ip, CD2F1 mice, survival T/C
Test: NCI In Vivo Anticancer Drug Screen. Data for tumor model P388 Leukemia (intraperitoneal) in CD2F1 (CDF1) mice
Conditions: endpoint: median survival time, higher = longer survival
How it was run: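 Mice carrying the transplanted tumor received test compound or vehicle. Survival was recorded in each group, and the value is the treated-group measurement divided by that of the vehicle-treated control group.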

[1] = dose: 60.0 mg/kg/injection, schedule: Q01DX005 (ip), vehicle: saline with Tween-80
[2] = dose: 120.0 mg/kg/injection, schedule: Q01DX005 (ip), vehicle: saline with Tween-80
[3] = dose: 240.0 mg/kg/injection, schedule: Q01DX005 (ip), vehicle: saline with Tween-80
[4] = dose: 60.0 mg/kg/injection, schedule: Q01DX005 (ip), vehicle: saline
[5] = dose: 120.0 mg/kg/injection, schedule: Q01DX005 (ip), vehicle: saline
[6] = dose: 240.0 mg/kg/injection, schedule: Q01DX005 (ip), vehicle: saline
[7] = dose: 50.0 mg/kg/injection, schedule: Q01DX005 (ip), vehicle: saline with Tween-80
[8] = dose: 100.0 mg/kg/injection, schedule: Q01DX005 (ip), vehicle: saline with Tween-80
[9] = dose: 200.0 mg/kg/injection, schedule: Q01DX005 (ip), vehicle: saline with Tween-80
[10] = dose: 50.0 mg/kg/injection, schedule: Q01DX009 (ip), vehicle: saline
[11] = dose: 100.0 mg/kg/injection, schedule: Q01DX009 (ip), vehicle: saline
[12] = dose: 200.0 mg/kg/injection, schedule: Q01DX009 (ip), vehicle: saline

Measured: T/C

COc1ccc(S(=O)(=O)O)cc1-n1nc(C(=O)Nc2ccccc2)n[n+]1-c1cc(S(=O)(=O)[O-])ccc1OC
inactive: dose: 100.0 mg/kg/injection, schedule: Q01DX001 (ip), vehicle: suspension in saline 100 % of control | dose: 200.0 mg/kg/injection, schedule: Q01DX001 (ip), vehicle: suspension in saline 100 % of control | dose: 400.0 mg/kg/injection, schedule: Q01DX001 (ip), vehicle: suspension in saline 103 % of control

Cc1nc2c(N)n[nH]c(=O)n2n1
inactive: [1] 103 % of control | [2] 100 % of control | [3] 99 % of control

CC(=O)OCC1OC(CCC#N)C(OC(C)=O)C(OC(C)=O)C1OC(C)=O (stereo unspecified)
inactive: [1] 102 % of control and 100 % of control | [4] 102 % of control | [2] 98 % of control and 108 % of control | [5] 101 % of control | [3] 100 % of control and 102 % of control | [6] 101 % of control

CCCS(=O)(=O)CCC(=O)c1cccs1
inactive: dose: 100.0 mg/kg/injection, schedule: Q04DX002 (ip), vehicle: saline 104 % of control | dose: 200.0 mg/kg/injection, schedule: Q04DX002 (ip), vehicle: saline 100 % of control | dose: 400.0 mg/kg/injection, schedule: Q04DX002 (ip), vehicle: saline 101 % of control

Fc1c(F)c(F)c(CCc2c(F)c(F)c(F)c(F)c2F)c(F)c1F
inactive: [1] 99 % of control | [2] 89 % of control | [3] 88 % of control

CCCCCCCc1c(C)[nH]c2cc(OC)ccc2c1=O
inactive: dose: 50.0 mg/kg/injection, schedule: Q01DX009 (ip), vehicle: saline with Tween-80 93 % of control | dose: 100.0 mg/kg/injection, schedule: Q01DX009 (ip), vehicle: saline with Tween-80 95 % of control | dose: 200.0 mg/kg/injection, schedule: Q01DX009 (ip), vehicle: saline with Tween-80 94 % of control

COC(=O)C1CCC(/C(C#N)=C2/CCC(C(=O)OC)[N-]2)=N1.COC(=O)C1CCC(/C(C#N)=C2/CCC(C(=O)OC)[N-]2)=N1.[Cu+2] (stereo unspecified)
inactive: [1] 103 % of control | [2] 94 % of control

O=C1C(C(=NCCO)c2ccccc2)=C(O)c2ccccc21
inactive: dose: 25.0 mg/kg/injection, schedule: Q04DX002 (ip), vehicle: saline with Tween-80 90 % of control | dose: 50.0 mg/kg/injection, schedule: Q04DX002 (ip), vehicle: saline with Tween-80 101 % of control | dose: 100.0 mg/kg/injection, schedule: Q04DX002 (ip), vehicle: saline with Tween-80 89 % of control

NCCNC(c1ccccc1)C(O)c1ccccc1 (stereo unspecified)
inactive: dose: 50.0 mg/kg/injection, schedule: Q04DX002 (ip), vehicle: Klucel (hydroxypropylcellulose) (HPC) 102 % of control | dose: 100.0 mg/kg/injection, schedule: Q04DX002 (ip), vehicle: Klucel (hydroxypropylcellulose) (HPC) 100 % of control

O=C(CNOCc1ccccc1)OCc1ccccc1
inactive: dose: 12.5 mg/kg/injection, schedule: Q01DX009 (ip), vehicle: other 88 % of control | dose: 25.0 mg/kg/injection, schedule: Q01DX009 (ip), vehicle: other 96 % of control | dose: 50.0 mg/kg/injection, schedule: Q01DX009 (ip), vehicle: other 99 % of control | dose: 100.0 mg/kg/injection, schedule: Q01DX009 (ip), vehicle: other 97 % of control | dose: 200.0 mg/kg/injection, schedule: Q01DX009 (ip), vehicle: other 108 % of control

COc1cc(O)c(Cc2ccc3c(c2)OCO3)cc1O
inactive: dose: 2.5 mg/kg/injection, schedule: Q01DX009 (ip), vehicle: saline with Tween-80 100 % of control | dose: 5.0 mg/kg/injection, schedule: Q01DX009 (ip), vehicle: saline with Tween-80 100 % of control | dose: 10.0 mg/kg/injection, schedule: Q01DX009 (ip), vehicle: saline with Tween-80 115 % of control

O=c1cnn(C2OC(CO)C(O)C2O)c(=O)[nH]1 (stereo unspecified)
inactive: dose: 12.5 mg/kg/injection, schedule: Q01DX009 (ip), vehicle: Klucel (hydroxypropylcellulose) (HPC) 118 % of control and 120 % of control | dose: 25.0 mg/kg/injection, schedule: Q01DX009 (ip), vehicle: Klucel (hydroxypropylcellulose) (HPC) 109 % of control and 110 % of control

O=C1OCC/C1=C\N1CCCCC1
inactive: [4] 102 % of control | [5] 100 % of control | [6] 106 % of control

O=C1C(c2ccccc2)=c2c(c3ccccc3c3ccccc23)=C1c1ccccc1
inactive: dose: 50.0 mg/kg/injection, schedule: Q01DX005 (ip), vehicle: Klucel (hydroxypropylcellulose) (HPC) 99 % of control | dose: 50.0 mg/kg/injection, schedule: Q01DX005 (ip), vehicle: Klucel + Tween-80 89 % of control and 95 % of control | dose: 100.0 mg/kg/injection, schedule: Q01DX005 (ip), vehicle: Klucel (hydroxypropylcellulose) (HPC) 98 % of control | dose: 100.0 mg/kg/injection, schedule: Q01DX005 (ip), vehicle: Klucel + Tween-80 89 % of control and 104 % of control | dose: 200.0 mg/kg/injection, schedule: Q01DX005 (ip), vehicle: Klucel (hydroxypropylcellulose) (HPC) 95 % of control | dose: 200.0 mg/kg/injection, schedule: Q01DX005 (ip), vehicle: Klucel + Tween-80 106 % of control

Brc1ccc(-n2c(-c3ccccc3)cs/c2=N\Nc2nnc(-c3ccccc3)c(-c3ccccc3)n2)cc1
inactive: [7] 101 % of control | [8] 87 % of control | [9] 92 % of control

O=C1NC2(c3ccccc3)NC(=O)NC2(c2ccccc2)N1 (stereo unspecified)
inactive: [10] 99 % of control | [11] 93 % of control | dose: 100.0 mg/kg/injection, schedule: Q04DX003 (ip), vehicle: saline with Tween-80 100 % of control | dose: 100.0 mg/kg/injection, schedule: Q04DX003 (ip), vehicle: saline 94 % of control | [12] 96 % of control | dose: 200.0 mg/kg/injection, schedule: Q04DX003 (ip), vehicle: saline with Tween-80 100 % of control | dose: 200.0 mg/kg/injection, schedule: Q04DX003 (ip), vehicle: saline 94 % of control | dose: 400.0 mg/kg/injection, schedule: Q04DX003 (ip), vehicle: saline with Tween-80 86 % of control | dose: 400.0 mg/kg/injection, schedule: Q04DX003 (ip), vehicle: saline 92 % of control

COc1cc2c(cc1C(C)(C)c1ccccc1)OCO2
inactive: [7] 99 % of control | [8] 100 % of control | [9] 101 % of control

O=C1NC(CN2CCC(O)CC2)C(=O)NC1CN1CCC(O)CC1 (stereo unspecified)
inactive: dose: 25.0 mg/kg/injection, schedule: Q01DX009 (ip), vehicle: saline 100 % of control | [10] 100 % of control | [11] 98 % of control | [12] 97 % of control

CCN(CC)CCNC(=O)CCC(=O)O
inactive: dose: 50.0 mg/kg/injection, schedule: Q01DX005 (ip), vehicle: saline 102 % of control | dose: 100.0 mg/kg/injection, schedule: Q01DX005 (ip), vehicle: saline 100 % of control | dose: 200.0 mg/kg/injection, schedule: Q01DX005 (ip), vehicle: saline 100 % of control

CCCCN1C(=O)C2C3CCC(O3)C2C1=O (stereo unspecified)
inactive: [1] 100 % of control | [2] 92 % of control

Cc1ccc(C)n1-n1nnnc1N
inactive: [7] 101 % of control | [8] 100 % of control

O=C1NC(c2ccccc2)(c2ccccc2)C(=O)N1CN1CCN(CN2C(=O)NC(c3ccccc3)(c3ccccc3)C2=O)CC1
inactive: dose: 25.0 mg/kg/injection, schedule: Q01DX001 (ip), vehicle: saline with Tween-80 100 % of control | dose: 50.0 mg/kg/injection, schedule: Q01DX001 (ip), vehicle: saline with Tween-80 95 % of control | dose: 100.0 mg/kg/injection, schedule: Q01DX001 (ip), vehicle: saline with Tween-80 90 % of control
